This is an account of results in patent publication US20240116985A1, “STAPLED PEPTIDES AND METHODS THEREOF” (priority 2020, published 2024).

The nature of series [1]: Solubility in PBS. It counts as physicochemical. The method in brief:
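HPLC quantitation of peptide remaining in the PBS supernatant after ultracentrifugation, referenced to a 50 μM solution in DMSO.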

Series [2] can be described thus: CHI Log D procedure. It counts as physicochemical.
Series [3] addresses T1, full-length beta-Catenin (Uniprot ID P35222) (Homo sapiens, UniProt P35222).
T1 construct: 10 nM full-length beta-Catenin (Uniprot ID P35222)
T1 sequence (P35222 1-781): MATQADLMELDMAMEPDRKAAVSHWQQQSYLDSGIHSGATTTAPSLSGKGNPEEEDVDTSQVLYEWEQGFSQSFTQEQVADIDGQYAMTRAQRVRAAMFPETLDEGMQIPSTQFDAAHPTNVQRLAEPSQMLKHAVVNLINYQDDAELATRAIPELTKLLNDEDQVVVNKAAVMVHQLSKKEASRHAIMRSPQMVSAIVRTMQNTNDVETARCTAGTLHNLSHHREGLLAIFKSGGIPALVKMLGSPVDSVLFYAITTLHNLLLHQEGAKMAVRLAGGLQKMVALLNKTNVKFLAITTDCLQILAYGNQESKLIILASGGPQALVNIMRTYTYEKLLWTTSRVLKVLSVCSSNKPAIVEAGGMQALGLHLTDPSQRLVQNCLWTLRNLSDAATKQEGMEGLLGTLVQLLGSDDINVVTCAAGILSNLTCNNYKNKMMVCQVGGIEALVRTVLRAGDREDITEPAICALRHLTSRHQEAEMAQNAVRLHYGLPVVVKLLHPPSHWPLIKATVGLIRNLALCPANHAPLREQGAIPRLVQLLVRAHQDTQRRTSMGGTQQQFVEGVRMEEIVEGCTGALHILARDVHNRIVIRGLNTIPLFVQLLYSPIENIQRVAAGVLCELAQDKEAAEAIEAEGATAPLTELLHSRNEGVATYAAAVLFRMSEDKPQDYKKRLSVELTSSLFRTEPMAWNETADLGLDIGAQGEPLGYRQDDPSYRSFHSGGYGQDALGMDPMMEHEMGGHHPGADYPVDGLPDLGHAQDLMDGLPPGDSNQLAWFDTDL
The experiment in a line: Fluorescence polarization IC50 (beta-catenin / 5FAM-TCF4 10-53 competition). It is filed as binding. In general terms: In fluorescence polarisation assays a small probe gives low polarisation when free and higher when bound to something large.

Where [4] appears, read: read-out: FP EC50, fluorescence polarization, beta-catenin.
Where [5] appears, read: FP EC50 (nM), fluorescence polarization, beta-catenin.
The mark [6] stands for this setting: fluorescence polarization, beta-catenin, read-out: FP EC50.

Converted amounts (≈) assume the structure as drawn. Read-outs that look alike come from different tables or passages of the source.

For the compound `C[C@@H]1NC(=O)[C@H](C)NC(=O)[C@H](CN(CC(=O)O)CC(F)(F)F)NC(=O)[C@H](Cc2ccsc2)NC(=O)C2(CCCC=CCCCOC(=O)N3CC[C@@](C(=O)N[C@@H](CC(=O)O)C(=O)N[C@@H](Cc4csc5ccccc45)C(=O)N[C@@H](CCC(N)=O)C(N)=O)(C3)NC(=O)[C@H](CC(N)=O)NC(=O)[C@H](Cc3ccccc3)NC1=O)CCCC=CC[C@]1(CCCN1C(=O)CN=[N+]=[N-])C(=O)N[C@@H](CC(=O)O)C(=O)N[C@@H](CC(C)(C)C)C(=O)N2` (stereo partly drawn) [I-1056, AzAc-PL3-Asp-Npg-B5-3Thi-TfeGA-Ala-Ala-Phe-Asn-PyrS2-Asp-BztA-Gln-NH2], the “Solubility” value in series [1] is 41 µM (≈ 84.9 µg/mL). Further, in series [2] (pH 7.4), the “CHI Log D” value is listed as 1.929. Moreover, the IC50 in series [3] (setting [4]) was determined as 6490 nM.
As for `C[C@@H]1NC(=O)[C@H](C)NC(=O)[C@H](CN(CC(=O)O)CC(F)(F)F)NC(=O)[C@H](Cc2ccsc2)NC(=O)C2(CCCC=CCCCOC(=O)N3CC[C@@](C(=O)N[C@@H](CC(=O)O)C(=O)N[C@@H](Cc4csc5ccccc45)C(=O)N[C@@H](CCC(N)=O)C(N)=O)(C3)NC(=O)[C@H](CC(N)=O)NC(=O)[C@H](Cc3ccccc3)NC1=O)CCCC=CC[C@]1(CCCN1C(=O)CN=[N+]=[N-])C(=O)N[C@@H](CC(=O)O)C(=O)N[C@@H](CC(C)(C)C)C(=O)N2` (stereo partly drawn) [I-1057, AzAc-PL3-Asp-Npg-B5-3Thi-TfeGA-Ala-Ala-Phe-Asn-PyrS2-Asp-BztA-Gln-NH2], the “Solubility” value in series [1] came to 50 µM (≈ 104 µg/mL). Besides, the “CHI Log D” value in series [2] (pH 7.4) is 1.92. Besides, the IC50 in series [3] (setting [4]) was determined as 6640 nM.
Turning to `C[C@@H]1NC(=O)[C@H](C)NC(=O)[C@H](CC(=O)O)NC(=O)[C@H](CC(=O)O)NC(=O)C2(CCCC=CCCCOC(=O)N3CC[C@@](C(=O)N[C@@H](Cc4ccsc4)C(=O)N[C@@H](Cc4csc5ccccc45)C(=O)N[C@@H](C(N)=O)[C@H](C)O)(C3)NC(=O)[C@H](CC(N)=O)NC(=O)[C@H](Cc3ccccc3)NC1=O)CCCC=CC[C@]1(CCCN1C(=O)CN=[N+]=[N-])C(=O)N[C@@H](CC(=O)O)C(=O)N[C@@H](CC(C)(C)C)C(=O)N2` (stereo partly drawn) [I-1058, AzAc-PL3-Asp-Npg-B5-Asp-Asp-Ala-Ala-Phe-Asn-PyrS2-3Thi-BztA-dThr-NH2], the concentration in solution in series [1] (Solubility) was 42 µM (≈ 81.2 µg/mL). The compound further yielded a chromatographic logD in series [2] (pH 7.4) of 2.25. For the same compound, the IC50 in series [3] (setting [5]) was found to be 14 nM.
In the case of `C[C@@H]1NC(=O)[C@H](C)NC(=O)[C@H](CN(CC(=O)O)CC(F)(F)F)NC(=O)[C@H](CC(=O)O)NC(=O)C2(CCCC=CCCCOC(=O)N3CC[C@@](C(=O)N[C@@H](Cc4ccccc4Cl)C(=O)N[C@@H](Cc4csc5ccccc45)C(=O)N[C@@H](CCC(N)=O)C(N)=O)(C3)NC(=O)[C@H]([C@@H](C)O)NC(=O)[C@H](Cc3ccccc3)NC1=O)CCCC=CC[C@]1(CCCN1C(=O)CN=[N+]=[N-])C(=O)N[C@@H](CC(=O)O)C(=O)N[C@@H](CC(C)(C)C)C(=O)N2` (stereo partly drawn) [I-1059, AzAc-PL3-Asp-Npg-B5-Asp-TfeGA-Ala-Ala-Phe-Thr-PyrS2-2C1F-BztA-Gln-NH2], the Solubility in series [1] came to 42 µM (≈ 87.6 µg/mL). Further, in series [2] (pH 7.4), the chromatographic logD came out at 2.44. The compound also registered an IC50 in series [3] (setting [5]) of 42 nM.
In the case of `C[C@@H]1NC(=O)[C@H](C)NC(=O)[C@H](CC(=O)O)NC(=O)[C@H](CC(=O)O)NC(=O)C2(CCCC=CCCCOC(=O)N3CC[C@@](C(=O)N[C@@H](Cc4ccccc4Cl)C(=O)N[C@@H](Cc4csc5ccccc45)C(=O)N[C@@H](C(N)=O)[C@H](C)O)(C3)NC(=O)[C@H]([C@@H](C)O)NC(=O)[C@H](Cc3ccccc3)NC1=O)CCCC=CC[C@]1(CCCN1C(=O)CN=[N+]=[N-])C(=O)N[C@@H](CC(=O)O)C(=O)N[C@@H](CC(C)(C)C)C(=O)N2` (stereo partly drawn) [I-1060, AzAc-PL3-Asp-Npg-B5-Asp-Asp-Ala-Ala-Phe-Thr-PyrS2-2C1F-BztA-dThr-NH2], the “Solubility” value in series [1] was 10 µM (≈ 19.5 µg/mL). The compound further came in with a chromatographic logD in series [2] (pH 7.4) of 2.6. Also, the IC50 in series [3] (setting [5]) was found to be 38 nM.
In series [1] (Solubility (uM)), `CC(=O)N1CCC[C@]12CC=CCCCC1(CCCC=CCCCOC(=O)N3CC[C@@](C(=O)N[C@@H](Cc4ccccc4Cl)C(=O)N[C@@H](Cc4csc5ccccc45)C(=O)N[C@@H](CCC(N)=O)C(N)=O)(C3)NC(=O)[C@H](CC(C)C)NC(=O)[C@H](Cc3ccccc3)NC(=O)[C@H](C)NC(=O)[C@H](C)NC(=O)[C@H](CCC(=O)O)NC(=O)[C@H](CC(=O)O)NC1=O)NC(=O)[C@H](CC(C)(C)C)NC(=O)[C@H](CC(=O)O)NC2=O` (stereo partly drawn) [I-1063, Ac-PL3-Asp-Npg-B5-Asp-Glu-Ala-Ala-Phe-Leu-PyrS2-2C1F-BztA-Gln-NH2] returned a Solubility of 43 µM (≈ 84.3 µg/mL). In series [2] (pH 7.4, CHI Log D), the chromatographic logD amounted to 1.64. In addition, the IC50 in series [3] (read-out: beta-Catenin FP IC50) was 471 nM.
`CC(=O)N1CCC[C@]12CC=CCCCC1(CCCC=CCCCOC(=O)N3CC[C@@](C(=O)N[C@@H](Cc4ccccc4Cl)C(=O)N[C@@H](Cc4csc5ccccc45)C(=O)N[C@@H](CO)C(N)=O)(C3)NC(=O)[C@H](CC(C)C)NC(=O)[C@H](Cc3ccccc3)NC(=O)[C@H](C)NC(=O)[C@H](C)NC(=O)[C@H](CC(=O)O)NC(=O)[C@H](CC(=O)O)NC1=O)NC(=O)[C@H](CC(C)(C)C)NC(=O)[C@H](CC(=O)O)NC2=O` (stereo partly drawn) [I-1064, Ac-PL3-Asp-Npg-B5-Asp-Asp-Ala-Ala-Phe-Leu-PyrS2-2C1F-BztA-Ser-NH2]: the “Solubility” value in series [1] turned out to be 29 µM (≈ 55.2 µg/mL). The “CHI Log D” value in series [2] (pH 7.4) worked out at 1.967. Moreover, the IC50 in series [3] (setting [6]) and in series [3] (read-out: beta-Catenin FP IC50) was 414 nM in each case.
In the case of `CC(=O)N1CCC[C@]12CC=CCCCC1(CCCC=CCCCOC(=O)N3CC[C@@](C(=O)N[C@@H](Cc4ccccc4Cl)C(=O)N[C@@H](Cc4csc5ccccc45)C(=O)N[C@@H](CO)C(N)=O)(C3)NC(=O)[C@H](CC(C)C)NC(=O)[C@H](Cc3ccccc3)NC(=O)[C@H](C)NC(=O)[C@H](C)NC(=O)[C@H](CCC(=O)O)NC(=O)[C@H](CC(=O)O)NC1=O)NC(=O)[C@H](CC(C)(C)C)NC(=O)[C@H](CC(=O)O)NC2=O` (stereo partly drawn) [I-1066, Ac-PL3-Asp-Npg-B5-Asp-Glu-Ala-Ala-Phe-Leu-PyrS2-2C1F-BztA-Ser-NH2], the “Solubility” value in series [1] is 10 µM (≈ 19.2 µg/mL). For the same compound, the “CHI Log D” value in series [2] (pH 7.4) was 2.024. The IC50 in series [3] (setting [6]) and in series [3] (read-out: beta-Catenin FP IC50) was 789 nM each time.
On to `CC(=O)N1CCC[C@]12CC=CCCCC1(CCCC=CCCCOC(=O)N3CC[C@@](C(=O)N[C@@H](Cc4ccccc4Cl)C(=O)N[C@@H](Cc4csc5ccccc45)C(=O)N[C@H](C(N)=O)[C@@H](C)O)(C3)NC(=O)[C@H](CC(C)C)NC(=O)[C@H](Cc3ccccc3)NC(=O)[C@H](C)NC(=O)[C@H](C)NC(=O)[C@H](CC(=O)O)NC(=O)[C@H](CC(=O)O)NC1=O)NC(=O)[C@H](CC(C)(C)C)NC(=O)[C@H](CC(=O)O)NC2=O` (stereo partly drawn) [I-1068, Ac-PL3-Asp-Npg-B5-Asp-Asp-Ala-Ala-Phe-Leu-PyrS2-2C1F-BztA-Thr-NH2], for which, in series [1], the “Solubility” value is 13 µM (≈ 24.9 µg/mL). Also, the “CHI Log D” value in series [2] (pH 7.4) is 2.053. The IC50 in series [3] (setting [6]) and in series [3] (read-out: beta-Catenin FP IC50) was 950 nM each time.
Regarding `CC(=O)N1CCC[C@]12CC=CCCCC1(CCCC=CCCCOC(=O)N3CC[C@@](C(=O)N[C@@H](Cc4ccccc4Cl)C(=O)N[C@@H](Cc4csc5ccccc45)C(=O)N[C@H](C(N)=O)[C@@H](C)O)(C3)NC(=O)[C@H](CC(C)C)NC(=O)[C@H](Cc3ccccc3)NC(=O)[C@H](C)NC(=O)[C@H](C)NC(=O)[C@H](CC(=O)O)NC(=O)[C@H](CC(=O)O)NC1=O)NC(=O)[C@H](CC(C)(C)C)NC(=O)[C@H](CC(=O)O)NC2=O` (stereo partly drawn) [I-1069, Ac-PL3-Asp-Npg-B5-Asp-Asp-Ala-Ala-Phe-Leu-PyrS2-2C1F-BztA-Thr-NH2], the “Solubility” value in series [1] was 10 µM (≈ 19.2 µg/mL). For the same compound, the “CHI Log D” value in series [2] (pH 7.4) is given as 2.113. Besides, the IC50 in series [3] (setting [6]) and in series [3] (read-out: beta-Catenin FP IC50) was 920 nM in each case.
Regarding `CC(=O)N1CCC[C@]12CC=CCCCC1(CCCC=CCCCOC(=O)N3CC[C@@](C(=O)N[C@@H](Cc4ccccc4Cl)C(=O)N[C@@H](Cc4csc5ccccc45)C(=O)N[C@H](C(N)=O)[C@@H](C)O)(C3)NC(=O)[C@H](CC(C)C)NC(=O)[C@H](Cc3ccccc3)NC(=O)[C@H](C)NC(=O)[C@H](C)NC(=O)[C@H](CCC(=O)O)NC(=O)[C@H](CC(=O)O)NC1=O)NC(=O)[C@H](CC(C)(C)C)NC(=O)[C@H](CC(=O)O)NC2=O` (stereo partly drawn) [I-1070, Ac-PL3-Asp-Npg-B5-Asp-Glu-Ala-Ala-Phe-Leu-PyrS2-2C1F-BztA-Thr-NH2], the “Solubility” value in series [1] worked out at 10 µM (≈ 19.3 µg/mL). Further, the “CHI Log D” value in series [2] (pH 7.4) was found to be 2.135. Also, the IC50 in series [3] (setting [6]) and in series [3] (read-out: beta-Catenin FP IC50) was 1020 nM throughout.

As a reminder, the Solubility is the concentration that dissolves in the medium under given conditions. A word on the chromatographic logD: it is lipophilicity estimated from chromatographic retention. A higher chromatographic logD goes with higher lipophilicity.
